PubChem BioAssay (NCI)
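Tested at 5 concentrations; 48 h exposure; 96-well plates; endpoints linearly interpolated, else capped at highest concentration. Abbreviation: GI50, concentration required for 50% inhibition of growth. The concentration for full growth arrest is given as TGI.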

How the values were obtained:
Experiment in all cases: inhibition of tumour cell growth, NCI panel, 48 h
SF-295 CNS = tested on: SF-295 CNS
OVCAR-8 ovarian = tested on: OVCAR-8 ovarian
UACC-62 melanoma = tested on: UACC-62 melanoma
SR leukemia = tested on: SR leukemia
SNB-75 CNS = tested on: SNB-75 CNS
SK-MEL-2 melanoma = tested on: SK-MEL-2 melanoma
HCT-15 colon = tested on: HCT-15 colon
786-0 renal = tested on: 786-0 renal
CAKI-1 renal = tested on: CAKI-1 renal
NCI-H23 lung = tested on: NCI-H23 lung
DU-145 prostate = tested on: DU-145 prostate
SW-620 colon = tested on: SW-620 colon
SN12C renal = tested on: SN12C renal
SK-OV-3 ovarian = tested on: SK-OV-3 ovarian
MCF7 breast = tested on: MCF7 breast
EKVX NSCLC = tested on: EKVX NSCLC
TK-10 renal = tested on: TK-10 renal
HCC-2998 colon = tested on: HCC-2998 colon
HT29 colon = tested on: HT29 colon
A549 NSCLC = tested on: A549 NSCLC
MDA-MB-435 = tested on: MDA-MB-435
NCI-H460 lung = tested on: NCI-H460 lung
LOX IMVI melanoma = tested on: LOX IMVI melanoma
MALME-3M melanoma = tested on: MALME-3M melanoma
PC-3 prostate = tested on: PC-3 prostate
ACHN renal = tested on: ACHN renal
RXF 393 renal = tested on: RXF 393 renal
SK-MEL-5 melanoma = tested on: SK-MEL-5 melanoma
NCI-H522 lung = tested on: NCI-H522 lung
HOP-92 NSCLC = tested on: HOP-92 NSCLC
SNB-19 CNS = tested on: SNB-19 CNS
OVCAR-3 ovarian = tested on: OVCAR-3 ovarian
MDA-MB-231 breast = tested on: MDA-MB-231 breast
A498 renal = tested on: A498 renal
COLO 205 colon = tested on: COLO 205 colon
UACC-257 melanoma = tested on: UACC-257 melanoma
NCI/ADR-RES ovarian = tested on: NCI/ADR-RES ovarian
HCT-116 colon = tested on: HCT-116 colon
HOP-62 NSCLC = tested on: HOP-62 NSCLC
M14 melanoma = tested on: M14 melanoma
K-562 leukemia = tested on: K-562 leukemia
SF-539 CNS = tested on: SF-539 CNS
CCRF-CEM leukemia = tested on: CCRF-CEM leukemia
UO-31 renal = tested on: UO-31 renal
SK-MEL-28 melanoma = tested on: SK-MEL-28 melanoma
RPMI-8226 leukemia = tested on: RPMI-8226 leukemia
BT-549 breast = tested on: BT-549 breast
NCI-H226 lung = tested on: NCI-H226 lung
OVCAR-5 ovarian = tested on: OVCAR-5 ovarian
HL-60(TB) leukemia = tested on: HL-60(TB) leukemia
MOLT-4 leukemia = tested on: MOLT-4 leukemia
SF-268 CNS = tested on: SF-268 CNS
T-47D breast = tested on: T-47D breast
OVCAR-4 ovarian = tested on: OVCAR-4 ovarian
IGROV1 ovarian = tested on: IGROV1 ovarian
U251 CNS = tested on: U251 CNS
HS 578T breast = tested on: HS 578T breast

Clc1ccc2c(SCC3CO3)c3ccccc3nc2c1 (configuration not stated)
TGI (SF-295 CNS): 42.1 µM | TGI (OVCAR-8 ovarian): > 100 µM | TGI (UACC-62 melanoma): > 100 µM | TGI (SR leukemia): 4.56 µM | TGI (SNB-75 CNS): 60.5 µM | TGI (SK-MEL-2 melanoma): 8.11 µM | TGI (HCT-15 colon): 3.34 µM | TGI (786-0 renal): 3.44 µM | TGI (CAKI-1 renal): 2.88 µM | TGI (NCI-H23 lung): > 100 µM | TGI (DU-145 prostate): 2.95 µM | TGI (SW-620 colon): 5.24 µM | TGI (SN12C renal): 7.35 µM | TGI (SK-OV-3 ovarian): 53.4 µM | TGI (MCF7 breast): 3.19 µM | TGI (EKVX NSCLC): 20.4 µM | TGI (TK-10 renal): 3.35 µM | TGI (HCC-2998 colon): 9.55 µM | TGI (HT29 colon): 3.23 µM | TGI (A549 NSCLC): 20.3 µM | TGI (MDA-MB-435): 20.2 µM | TGI (NCI-H460 lung): 20.9 µM | TGI (LOX IMVI melanoma): > 100 µM | TGI (MALME-3M melanoma): 6.39 µM | TGI (PC-3 prostate): 6.86 µM | TGI (ACHN renal): 4.55 µM | TGI (RXF 393 renal): 8.08 µM | TGI (SK-MEL-5 melanoma): 9.07 µM | TGI (NCI-H522 lung): 5.64 µM | TGI (HOP-92 NSCLC): 5.08 µM | TGI (SNB-19 CNS): 15.3 µM | TGI (OVCAR-3 ovarian): 3.27 µM | TGI (MDA-MB-231 breast): 6.64 µM | TGI (A498 renal): 33.9 µM | TGI (COLO 205 colon): 10.7 µM | TGI (UACC-257 melanoma): 9.3 µM | TGI (NCI/ADR-RES ovarian): 7.24 µM | TGI (HCT-116 colon): 3.04 µM | TGI (HOP-62 NSCLC): 17.6 µM | TGI (M14 melanoma): 3.34 µM | TGI (K-562 leukemia): 4.43 µM | TGI (SF-539 CNS): 7.11 µM | TGI (CCRF-CEM leukemia): 6.98 µM | TGI (UO-31 renal): 3.34 µM | TGI (SK-MEL-28 melanoma): 21.1 µM | TGI (RPMI-8226 leukemia): 7.19 µM | TGI (BT-549 breast): 18.7 µM | TGI (NCI-H226 lung): > 100 µM | TGI (OVCAR-5 ovarian): 10.4 µM | TGI (HL-60(TB) leukemia): 2.59 µM | TGI (MOLT-4 leukemia): 4.3 µM | TGI (SF-268 CNS): > 100 µM | TGI (T-47D breast): 4.97 µM | TGI (OVCAR-4 ovarian): 21.1 µM | TGI (IGROV1 ovarian): 2.9 µM

c1ccc(C2=NOC3(c4ccccc4)CC(c4cccs4)Sc4ccccc4N23)cc1 (configuration not stated)
GI50 (HT29 colon): 65.5 µM | GI50 (HCT-116 colon): 28.2 µM | GI50 (K-562 leukemia): 23.6 µM | GI50 (UO-31 renal): 89.1 µM | GI50 (OVCAR-5 ovarian): 35.1 µM | GI50 (U251 CNS): 7.58 µM | GI50 (MOLT-4 leukemia): 8.75 µM

COc1cc(C(=O)OCCCCCCCCCCC[P+](c2ccccc2)(c2ccccc2)c2ccccc2)ccc1O
GI50 (OVCAR-8 ovarian): 0.345 µM | TGI (OVCAR-8 ovarian): 1.53 µM | GI50 (UACC-62 melanoma): 0.768 µM | TGI (UACC-62 melanoma): 2.44 µM | GI50 (SR leukemia): 0.364 µM | TGI (SR leukemia): 2.31 µM | GI50 (SK-MEL-2 melanoma): 0.522 µM | TGI (SK-MEL-2 melanoma): 1.88 µM | GI50 (HCT-15 colon): 1.38 µM | TGI (HCT-15 colon): 2.97 µM | GI50 (786-0 renal): 1.06 µM | TGI (786-0 renal): 2.38 µM | GI50 (CAKI-1 renal): 1.64 µM | TGI (CAKI-1 renal): 3.18 µM | GI50 (DU-145 prostate): 0.46 µM | TGI (DU-145 prostate): 1.58 µM | GI50 (SK-OV-3 ovarian): 1.35 µM | TGI (SK-OV-3 ovarian): 5.5 µM | GI50 (TK-10 renal): 1.65 µM | TGI (TK-10 renal): 4.15 µM | GI50 (HCC-2998 colon): 0.57 µM | TGI (HCC-2998 colon): 1.92 µM | GI50 (MDA-MB-435): 0.312 µM | TGI (MDA-MB-435): 1.24 µM | GI50 (HS 578T breast): 0.549 µM | TGI (HS 578T breast): 5.25 µM | GI50 (ACHN renal): 1.46 µM | TGI (ACHN renal): 2.99 µM | GI50 (MDA-MB-231 breast): 0.301 µM | TGI (MDA-MB-231 breast): 1.16 µM | GI50 (A498 renal): 1.84 µM | TGI (A498 renal): 5.23 µM | GI50 (COLO 205 colon): 1.49 µM | TGI (COLO 205 colon): 3.06 µM | GI50 (UACC-257 melanoma): 0.451 µM | TGI (UACC-257 melanoma): 1.54 µM | GI50 (NCI/ADR-RES ovarian): 2.43 µM | TGI (NCI/ADR-RES ovarian): 6.52 µM | GI50 (HCT-116 colon): 0.273 µM | TGI (HCT-116 colon): 1.09 µM | GI50 (M14 melanoma): 0.349 µM | TGI (M14 melanoma): 1.45 µM | GI50 (CCRF-CEM leukemia): 0.434 µM | TGI (CCRF-CEM leukemia): 2.52 µM | GI50 (UO-31 renal): 1.69 µM | TGI (UO-31 renal): 3.17 µM | GI50 (RPMI-8226 leukemia): 0.2 µM | TGI (RPMI-8226 leukemia): 0.942 µM | GI50 (BT-549 breast): 0.271 µM | TGI (BT-549 breast): 1.26 µM | GI50 (OVCAR-5 ovarian): 1.59 µM | TGI (OVCAR-5 ovarian): 3.25 µM | GI50 (HL-60(TB) leukemia): 0.282 µM | TGI (HL-60(TB) leukemia): 0.734 µM | GI50 (MOLT-4 leukemia): 0.557 µM | TGI (MOLT-4 leukemia): 4.31 µM

CNCc1cccc2c1OCCOCCN(C)C(=O)CN(C)S(=O)(=O)c1ccc(cc1)-c1cnc(N)c(n1)C(=O)N2
GI50 (SF-295 CNS): 1.77 µM | TGI (SF-295 CNS): > 100 µM | GI50 (HCT-15 colon): 6.97 µM | TGI (HCT-15 colon): > 100 µM | GI50 (786-0 renal): 0.669 µM | TGI (786-0 renal): 2.09 µM | GI50 (CAKI-1 renal): 2.35 µM | TGI (CAKI-1 renal): > 100 µM | GI50 (NCI-H23 lung): 0.299 µM | TGI (NCI-H23 lung): 3.47 µM | GI50 (MCF7 breast): 0.0853 µM | TGI (MCF7 breast): > 100 µM | GI50 (TK-10 renal): 2.71 µM | TGI (TK-10 renal): > 100 µM | GI50 (HT29 colon): 2.85 µM | TGI (HT29 colon): > 100 µM | GI50 (SK-MEL-5 melanoma): 6.63 µM | TGI (SK-MEL-5 melanoma): > 100 µM | GI50 (A498 renal): 1.82 µM | TGI (A498 renal): 7.34 µM | GI50 (NCI/ADR-RES ovarian): > 100 µM | TGI (NCI/ADR-RES ovarian): > 100 µM | GI50 (UO-31 renal): > 100 µM | TGI (UO-31 renal): > 100 µM
